Reference: PubChem BioAssay (NCI)
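Compound exposure: 48 hours, 5 concentrations, 96-well plates. GI50: concentration for 50% inhibition of growth. TGI is the concentration that stops growth completely.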

Columns and labels:
Experiment in all cases: growth of human tumour cells (NCI), 48 h
[1] = system: MCF7 breast
[2] = system: MDA-MB-231 breast
[3] = system: NCI-H460 lung
[4] = system: HCT-116 colon
[5] = system: NCI-H226 lung
[6] = system: NCI-H23 lung
[7] = system: SNB-75 CNS
[8] = system: A549 NSCLC
[9] = system: SF-539 CNS
[10] = system: LOX IMVI melanoma
[11] = system: SNB-19 CNS
[12] = system: SF-295 CNS
[13] = system: T-47D breast
[14] = system: COLO 205 colon
[15] = system: CAKI-1 renal
[16] = system: NCI-H522 lung
[17] = system: OVCAR-5 ovarian
[18] = system: M14 melanoma
[19] = system: TK-10 renal
[20] = system: HL-60(TB) leukemia
[21] = system: NCI/ADR-RES ovarian
[22] = system: OVCAR-8 ovarian
[23] = system: ACHN renal
[24] = system: HCT-15 colon
[25] = system: HT29 colon
[26] = system: RPMI-8226 leukemia
[27] = system: OVCAR-3 ovarian
[28] = system: PC-3 prostate
[29] = system: 786-0 renal
[30] = system: SK-MEL-2 melanoma
[31] = system: HOP-62 NSCLC
[32] = system: UO-31 renal
[33] = system: SK-MEL-28 melanoma
[34] = system: K-562 leukemia
[35] = system: SK-MEL-5 melanoma
[36] = system: SN12C renal
[37] = system: SF-268 CNS
[38] = system: KM12 colon
[39] = system: HCC-2998 colon
[40] = system: CCRF-CEM leukemia
[41] = system: SK-OV-3 ovarian
[42] = system: MOLT-4 leukemia
[43] = system: HOP-92 NSCLC
[44] = system: OVCAR-4 ovarian
[45] = system: MALME-3M melanoma
[46] = system: DU-145 prostate
[47] = system: HS 578T breast
[48] = system: SW-620 colon
[49] = system: SR leukemia
[50] = system: U251 CNS
[51] = system: EKVX NSCLC
[52] = system: BT-549 breast
[53] = system: IGROV1 ovarian
[54] = system: UACC-62 melanoma
[55] = system: UACC-257 melanoma
[56] = system: A498 renal

With `O=C(N/N=C/c1cccs1)c1[nH]c2ccc(Br)cc2c1-c1ccccc1` the GI50 [1] was 37.4 nM, the TGI [1] was > 35500 nM and the GI50 [2] was 128 nM. It also gave a TGI [2] of 687 nM, a GI50 [3] of 65.7 nM and a TGI [3] of 3220 nM. The GI50 [4] was 34.5 nM, the TGI [4] was > 100000 nM and the GI50 [5] was 240 nM. The TGI [5] was > 100000 nM, the GI50 [6] was 88.3 nM and the TGI [6] was > 100000 nM. For the same compound, the GI50 [7] was 226 nM, the TGI [7] was 8490 nM and the GI50 [8] was 125 nM. The TGI [8] was > 100000 nM, the GI50 [9] was 28.3 nM and the TGI [9] was 115 nM. The GI50 [10] was 34.7 nM, the TGI [10] was 22800 nM and the GI50 [11] was 124 nM. For the same compound, the TGI [11] was > 100000 nM, the GI50 [12] was 39.2 nM and the TGI [12] was 39600 nM. For the same compound, the GI50 [13] was 8840 nM, the TGI [13] was > 100000 nM and the GI50 [14] was 152 nM. The TGI [14] was 320 nM, the GI50 [15] was 153 nM and the TGI [15] was > 100000 nM. The GI50 [16] was 24.2 nM, the TGI [16] was 80.9 nM and the GI50 [17] was 109 nM. The TGI [17] was > 100000 nM, the GI50 [18] was 69.9 nM and the TGI [18] was > 100000 nM. The GI50 [19] was 5740 nM, the TGI [19] was > 100000 nM and the GI50 [20] was 86.8 nM. The TGI [20] was 358 nM, the GI50 [21] was 39.2 nM and the GI50 [22] was 44.2 nM. The GI50 [23] was 103 nM, the TGI [23] was > 82900 nM and the GI50 [24] was 41.8 nM. The TGI [24] was > 57200 nM, the GI50 [25] was 36.8 nM and the TGI [25] was 1570 nM. The GI50 [26] was 54.2 nM, the TGI [26] was > 76500 nM and the GI50 [27] was 63.7 nM. The TGI [27] was > 72900 nM, the GI50 [28] was 224 nM and the TGI [28] was > 100000 nM. For the same compound, the GI50 [29] was 186 nM, the TGI [29] was > 100000 nM and the GI50 [30] was 150 nM. The TGI [30] was > 100000 nM, the GI50 [31] was 150 nM and the TGI [31] was > 93400 nM. The GI50 [32] was 120 nM, the TGI [32] was > 100000 nM and the GI50 [33] was 612 nM. For the same compound, the TGI [33] was > 100000 nM, the GI50 [34] was 36.7 nM and the TGI [34] was > 100000 nM. It also gave a GI50 [35] of 63.8 nM, a TGI [35] of 230 nM and a GI50 [36] of 72.8 nM. The TGI [36] was > 51200 nM, the GI50 [37] was 404 nM and the TGI [37] was > 100000 nM. For the same compound, the GI50 [38] was 152 nM, the TGI [38] was > 100000 nM and the GI50 [39] was 142 nM. The TGI [39] was 43300 nM, the GI50 [40] was 61.9 nM and the TGI [40] was > 100000 nM. The GI50 [41] was 345 nM, the TGI [41] was > 100000 nM and the GI50 [42] was 152 nM. For the same compound, the TGI [42] was > 100000 nM, the GI50 [43] was 1120 nM and the TGI [43] was > 100000 nM. For the same compound, the GI50 [44] was 340 nM, the TGI [44] was > 100000 nM and the GI50 [45] was 179 nM. The TGI [45] was > 100000 nM, the GI50 [46] was 63 nM and the TGI [46] was > 100000 nM. The GI50 [47] was 65.7 nM, the TGI [47] was > 100000 nM and the GI50 [48] was 40.5 nM. For the same compound, the TGI [48] was > 100000 nM, the GI50 [49] was 41.2 nM and the TGI [49] was > 100000 nM. For the same compound, the GI50 [50] was 74.6 nM, the TGI [50] was > 100000 nM and the GI50 [51] was 2200 nM. For the same compound, the TGI [51] was > 100000 nM, the GI50 [52] was 97.6 nM and the TGI [52] was 474 nM. The GI50 [53] was 81.8 nM, the TGI [53] was > 100000 nM and the GI50 [54] was 51.6 nM. The TGI [54] was > 100000 nM, the GI50 [55] was 297 nM and the TGI [55] was > 100000 nM. The GI50 [56] was > 83800 nM and the TGI [56] was > 100000 nM.
